# Reference: PMC12141164, “Phase-1 study of vamotinib (PF-114), a 3rd generation BCR::ABL1 tyrosine kinase-inhibitor, in chronic myeloid leukaemia” (Annals of Hematology, 2025)
# Like-named read-outs stand apart in the source and are kept apart here.
# Columns and labels:
# [1] = tested on: BaF3 cells expressing BCR::ABL1^T315I; set-up: method as in PMID 25394714; settings: read-out: IC50 of cytotoxicity; cited from earlier work
# animals = settings: cited from earlier work
# [2] = tested on: subjects with BCR::ABL1 positive CML; settings: for SAE: Upper respiratory tract infection: Relation to study drug No
# Method: Open-label phase-1 study at 3 clinical centers with dose-escalation using a 3 + 3 scheme with a starting dose of 50 mg/d given continuously. A 28-days of therapy was defined as a cycle. Dose escalation for the subsequent cohort depended on the results of the safety assessment of subjects in the preceding cohort during the 28 days of therapy. Once an MTD was identified expanded cohorts of 10–15 subjects were recruited at doses of interest below the MTD. A modified accelerated dose-escalation regimen was used up to a dose of 400 mg. Dose could be increased for subjects in whom the dose was reduced because of an adverse drug reaction (ADR). Severity of adverse events was assessed using NCI CTC AE v4 [28].
# The primary objective was to determine the MTD and DLT of vamotinib during the 1st cycle of therapy. Secondary objectives were to assess the safety and tolerability of vamotinib, determine pharmacokinetics and determine efficacy by response criteria according to 2013 ELN [29].
# Safety set consists of all patients, who at least once took the study drug.
# Population for DLT evaluation consists of all patients, who received sufficient amount of the study drug during Cycle 1 for adequate DLT assessment.
# The sufficient amount of the drug is determined as the intake of ≥ 75 % of the scheduled dose during Cycle 1, except for doses missed due to the DLT.
structure (smiles),measurement,setting,value
Cc1ccc(C(=O)Nc2ccc(CN3CCN(C)CC3)c(C(F)(F)F)c2)cc1C#Cc1nnc2ccccn12 [vamotinib],IC50,[1],0.075 µM
same,arterial occlusive events,animals; pre-clinical studies in animals,no arterial occlusive events
same,cardio-vascular findings,animals; pre-clinical toxicology studies,No cardio-vascular findings
same,SAE: Infections and infestations,[2]; Cohort 1 50 mg N=3,0 n (%)
same,SAE: Infections and infestations,[2]; Cohort 2 100 mg N=3,0 n (%)
same,SAE: Infections and infestations,[2]; Cohort 3 200 mg N=11,0 n (%)
same,SAE: Infections and infestations,[2]; Cohort 4 400 mg N=12,0 n (%)
same,SAE: Infections and infestations,[2]; Cohort 5 500 mg N=3,0 n (%)
same,SAE: Infections and infestations,[2]; Cohort 6 600 mg N=6,2 (33.3)/2 n (%)
same,SAE: Infections and infestations,[2]; Cohort 7 750 mg N=4,0 n (%)
same,SAE: Infections and infestations,[2]; Cohort 8 300 mg N=9,3 (33.3)/3 n (%)
same,SAE: Infections and infestations,[2]; Overall N=51,5 (9.8)/5 n (%)
same,SAE: Upper respiratory tract infection,[2]; Cohort 1 (50 mg) N=3,0 n (%)
same,SAE: Upper respiratory tract infection,[2]; Cohort 2 (100 mg) N=3,0 n (%)
same,SAE: Upper respiratory tract infection,[2]; Cohort 3 (200 mg) N=11,0 n (%)
same,SAE: Upper respiratory tract infection,[2]; Cohort 4 (400 mg) N=12,0 n (%)
same,SAE: Upper respiratory tract infection,[2]; Cohort 5 (500 mg) N=3,0 n (%)
same,SAE: Upper respiratory tract infection,[2]; Cohort 6 (600 mg) N=6,1 (16.7)/1 n (%)
same,SAE: Upper respiratory tract infection,[2]; Cohort 7 (750 mg) N=4,0 n (%)
same,SAE: Upper respiratory tract infection,[2]; Cohort 8 (300 mg) N=9,0 n (%)
same,SAE: Upper respiratory tract infection,[2]; Overall N=51,1 (2.0)/1 n (%)
same,Abdominal pain,"[2]; human, in vivo",2 (4) Number of subjects (percent)
same,Abdominal pain upper,"[2]; human, in vivo",4 (8) Number of subjects (percent)
same,Alanine aminotransferase increased,"[2]; human, in vivo",2 (4) Number of subjects (percent)
same,Anal fissure,"[2]; human, in vivo",2 (4) Number of subjects (percent)
same,Blood cholesterol increased,"[2]; human, in vivo",3 (6) Number of subjects (percent)
same,Discontinued: adverse event,"[2]; human, in vivo",6
same,Discontinued: intolerable adverse drug reaction in the opinion of the investigator,"[2]; human, in vivo",2
same,Dry skin,"[2]; human, in vivo",9 (18) Number of subjects (percent)
same,Dry skin and rash,"[2]; human, in vivo",8 subjects
same,"Dry skin, Grade 3","[2]; human, in vivo",0 n
same,"Dry skin, Total","[2]; human, in vivo",9 n
same,Dyspepsia,"[2]; human, in vivo",2 (4) Number of subjects (percent)
same,Erythema,"[2]; human, in vivo",4 (8) Number of subjects (percent)
same,"Erythema, Grade 3","[2]; human, in vivo",0 n
same,"Erythema, Total","[2]; human, in vivo",4 n
same,Eye disorders,"[2]; human, in vivo",3 (6) Number of subjects (percent)
same,Gastrointestinal disorders,"[2]; human, in vivo",17 (33) Number of subjects (percent)
same,Hepatitis toxic,"[2]; human, in vivo",1 (2) Number of subjects (percent)
same,Hepato-biliary disorders,"[2]; human, in vivo",1 (2) Number of subjects (percent)
same,Leukopenia,"[2]; human, in vivo",1 (2) Number of subjects (percent)
same,Low density lipoprotein increased,"[2]; human, in vivo",2 (4) Number of subjects (percent)
same,Nausea,"[2]; human, in vivo",6 (12) Number of subjects (percent)
same,"Pruritus, Grade 3","[2]; human, in vivo",1 n
same,"Pruritus, Total","[2]; human, in vivo",5 n
same,"Psoriasiform dermatitis, Grade 3","[2]; human, in vivo",4 n
same,"Psoriasiform dermatitis, Total","[2]; human, in vivo",19 n
same,Rash,"[2]; human, in vivo",32 subjects
same,Rash papular,"[2]; human, in vivo",2 (4) Number of subjects (percent)
same,"Rash papular, Grade 3","[2]; human, in vivo",0 n
same,"Rash papular, Total","[2]; human, in vivo",2 n
same,SAE: Acute sinusitis,"[2]; human, in vivo",1 (2.0)/1 n (%)
same,SAE: Appendicitis,"[2]; human, in vivo",1 (2.0)/1 n (%)
same,SAE: Atrial fibrillation,"[2]; human, in vivo",1 (2.0)/1 n (%)
same,SAE: Cardiac disorders,"[2]; human, in vivo",1 (2.0)/1 n (%)
same,SAE: Disease progression,"[2]; human, in vivo",1 (2.0)/1 n (%)
same,SAE: General disorders and administration site conditions,"[2]; human, in vivo",1 (2.0)/1 n (%)
same,SAE: Peritonitis,"[2]; human, in vivo",1 (2.0)/1 n (%)
same,SAE: Pneumonia,"[2]; human, in vivo",1 (2.0)/1 n (%)
same,"Toxic skin eruption, Grade 3","[2]; human, in vivo",7 n
same,"Toxic skin eruption, Total","[2]; human, in vivo",9 n
same,Transaminases increased,"[2]; human, in vivo",1 (2) Number of subjects (percent)
same,dose-reduction because of rash,"[2]; human, in vivo",9 n
same,study withdrawal because of rash,"[2]; human, in vivo",6 n
same,time after which skin lesions were resolved,"[2]; human, in vivo",4–6 months
same,time to resolution of skin toxicity after discontinuation of the drug,"[2]; human, in vivo",1–2 weeks
same,DLTs,"[2]; human, in vivo, 28 days",4
same,dose-limiting toxicity (DLT),"[2]; human, in vivo, 28 days",Grade-3 psoriasis-like skin toxicity
same,dose-limiting toxicity (DLT),[2]; in vivo,rash
